The values below come from patent publication EP0132540A1 (priority 1981, dated 1983).

≈ marks a conversion by molar mass, not a printed value.

What is called LD50 is the dose expected to kill half of the subjects tested.

The first data set relates to Influenza A0. The data set is described as follows: microbe, parasite or virus in culture. In kind it is cell-based. The settings on record: Virus A = Influenza A0, MDCK, Vero and HEL cells.
`O=C(O)c1ccc(Cl)c(S(=O)(=O)N2CCOCC2)c1` [Compound 6, 4-chloro-3-morpholino-sulfonylbenzoic acid] yielded an MIC of 30 µg/mL (≈ 98.1 µM).

Compound `NS(=O)(=O)c1cc(C(=O)O)c(Cl)cc1Cl` [Compound 7, 5-aminosulfonyl-2,4-dichlorobenzoic acid] displayed an MIC of 10 µg/mL (≈ 37 µM).

The test system of a further data set is Influenza A1. The data set is described as follows: microbe, parasite or virus in culture. The format is cell-based.
Conditions: not given
Consider `O=C(O)c1ccc(Cl)c(S(=O)(=O)N2CCOCC2)c1` [Compound 6, 4-chloro-3-morpholino-sulfonylbenzoic acid], for which the MIC is 300 µg/mL (≈ 981 µM).

For the compound `NS(=O)(=O)c1cc(C(=O)O)c(Cl)cc1Cl` [Compound 7, 5-aminosulfonyl-2,4-dichlorobenzoic acid], the MIC came out at 300 µg/mL (≈ 1110 µM).

In another data set the test system is Influenza B. Briefly: microbe, parasite or virus in culture. In kind it is cell-based.
Conditions: not given
Compound `O=C(O)c1ccc(Cl)c(S(=O)(=O)N2CCOCC2)c1` [Compound 6, 4-chloro-3-morpholino-sulfonylbenzoic acid] returned an MIC of 300 µg/mL (≈ 981 µM).

Compound `NS(=O)(=O)c1cc(C(=O)O)c(Cl)cc1Cl` [Compound 7, 5-aminosulfonyl-2,4-dichlorobenzoic acid] showed an MIC of 100 µg/mL (≈ 370 µM).

The next data set relates to Parainfluenza Type 3. The data set is described as follows: microbe, parasite or virus in culture. In kind it is cell-based. The conditions noted are these: Virus E = Parainfluenza Type 3.
For the compound `O=C(O)c1ccc(Cl)c(S(=O)(=O)N2CCOCC2)c1` [Compound 6, 4-chloro-3-morpholino-sulfonylbenzoic acid], the MIC is 300 µg/mL (≈ 981 µM).

With `NS(=O)(=O)c1cc(C(=O)O)c(Cl)cc1Cl` [Compound 7, 5-aminosulfonyl-2,4-dichlorobenzoic acid], the MIC amounted to 100 µg/mL (≈ 370 µM).

The subject of a further data set is ECHO. Briefly: microbe, parasite or virus in culture. The format is cell-based.
Conditions: not given
`O=C(O)c1ccc(Cl)c(S(=O)(=O)N2CCOCC2)c1` [Compound 6, 4-chloro-3-morpholino-sulfonylbenzoic acid] returned an MIC of 100 µg/mL (≈ 327 µM).

The compound `NS(=O)(=O)c1cc(C(=O)O)c(Cl)cc1Cl` [Compound 7, 5-aminosulfonyl-2,4-dichlorobenzoic acid] registered an MIC of 100 µg/mL (≈ 370 µM).

Another data set has as its system Coxsackie Type B5. Briefly: microbe, parasite or virus in culture. The format is cell-based. The conditions noted are these: Virus G = Coxsackie Type B5.
In turn, `O=C(O)c1ccc(Cl)c(S(=O)(=O)N2CCOCC2)c1` [Compound 6, 4-chloro-3-morpholino-sulfonylbenzoic acid] had an MIC of 300 µg/mL (≈ 981 µM).

For the compound `NS(=O)(=O)c1cc(C(=O)O)c(Cl)cc1Cl` [Compound 7, 5-aminosulfonyl-2,4-dichlorobenzoic acid], the MIC turned out to be 100 µg/mL (≈ 370 µM).

A further data set deals with Rhino. The data set is described as follows: microbe, parasite or virus in culture. The format is cell-based.
Conditions: not given
Turning to `O=C(O)c1ccc(Cl)c(S(=O)(=O)N2CCOCC2)c1` [Compound 6, 4-chloro-3-morpholino-sulfonylbenzoic acid], the MIC turned out to be 300 µg/mL (≈ 981 µM).

Compound `NS(=O)(=O)c1cc(C(=O)O)c(Cl)cc1Cl` [Compound 7, 5-aminosulfonyl-2,4-dichlorobenzoic acid] displayed an MIC of 100 µg/mL (≈ 370 µM).

Another data set has as its system influenza A0 virus. Briefly: Protective action against the death of mice infected with influenza A0 virus. The format is in vivo, ICR female mice. The conditions noted are these: intraperitoneal, 10 mg/kg, twice a day for 14 days, survivors at 15th day. The text has this:
Experimental Example 2 Protective Action against the Death of Mice. Infected with Influenza A0 Virus,
After the influenza A0 virus was inoculated to groups each -consisting of ten ICR female mice (16 - 18 g) intranasally under light anesthesia with ether, compound of the invention was given orally or intraperitoneally as multiple doses of twice a day starting one hour after infection and continued for 14 days. The result of the treatment was shown as the increase in percentage of survivors at 15th day.
Take `NS(=O)(=O)c1cc(C(=O)O)c(Cl)cc1Cl` [Compound 7, 5-aminosulfonyl-2,4-dichlorobenzoic acid]: the Survival rate was determined as 40%.

Staying with this data set, now noted: intraperitoneal, 30 mg/kg, twice a day for 14 days, survivors at 15th day.
Consider `NS(=O)(=O)c1cc(C(=O)O)c(Cl)cc1Cl` [Compound 7, 5-aminosulfonyl-2,4-dichlorobenzoic acid], for which the Survival rate is 50%.

Staying with this data set, now noted: intraperitoneal, 100 mg/kg, twice a day for 14 days, survivors at 15th day.
In turn, `O=C(O)c1ccc(Cl)c(S(=O)(=O)N2CCOCC2)c1` [Compound 6, 4-chloro-3-morpholino-sulfonylbenzoic acid] had a Survival rate of 50%.

The data set is the same for the next values; noted with them: oral, 30 mg/kg, twice a day for 14 days, survivors at 15th day.
Turning to `NS(=O)(=O)c1cc(C(=O)O)c(Cl)cc1Cl` [Compound 7, 5-aminosulfonyl-2,4-dichlorobenzoic acid], the Survival rate came to 40%.

The data set is the same for the next values; noted with them: oral, 100 mg/kg, twice a day for 14 days, survivors at 15th day.
On to `NS(=O)(=O)c1cc(C(=O)O)c(Cl)cc1Cl` [Compound 7, 5-aminosulfonyl-2,4-dichlorobenzoic acid], for which the Survival rate is 60%.

The data set is the same for the next values; noted with them: oral, 300 mg/kg, twice a day for 14 days, survivors at 15th day.
In turn, `O=C(O)c1ccc(Cl)c(S(=O)(=O)N2CCOCC2)c1` [Compound 6, 4-chloro-3-morpholino-sulfonylbenzoic acid] displayed a Survival rate of 50%.

The data set is the same for the next values; noted with them: result in words, oral or intraperitoneal.
Take `NS(=O)(=O)c1cc(C(=O)O)c(Cl)cc1Cl` [Compound 7, 5-aminosulfonyl-2,4-dichlorobenzoic acid]: the “protective action against death due to the infection” value is given as “extremely excellent activity”.

The next data set relates to influenza virus B/GL.
Test: not given
The format is in vivo, ICR female mice. The conditions noted are these: result in words, oral.
For `CCCCOC(=O)c1ccc(Br)c(S(N)(=O)=O)c1` [Compound 10, 3-aminosulfonyl-4-bromo-n-butylbenzoate], the “survival rates of the treated groups as compared with that of the control” value is listed as “extremely excellent activity”.

Tested on in the next data set: not listed separately
The data set is described as follows: Acute toxicity in mice. Also on record: species or system ddy male mice. The conditions noted are these: mouse, in vivo, ip; Intra-peritoneal administration, suspended in 5% Arabic gum solution, mortality observed for 7 days. The protocol:
Experimental Example 7: Acute Toxicity in Mice
Each compound of the invention was suspended in 5% Arabic gum solution and given orally (p.o.) or intraperitoneally (i.p.) to groups of ten ddy male mice weighed from 24 to 26 g at the dosage volume of 10 ml/kg. […] LD50 was determined according to the method of Wilcoxon and Litchfield.
Consider `O=C(O)c1ccc(Cl)c(S(=O)(=O)N2CCOCC2)c1` [Compound 6, 4-chloro-3-morpholino-sulfonylbenzoic acid], for which the LD50 at 168 h was > 1000 mg/kg.

In the case of `NS(=O)(=O)c1cc(C(=O)O)c(Cl)cc1Cl` [Compound 7, 5-aminosulfonyl-2,4-dichlorobenzoic acid], the LD50 at 168 h was > 1000 mg/kg.

Take `COC(=O)c1ccc(F)c(S(N)(=O)=O)c1` [Compound 8, 3-aminosulfonyl-4-fluoromethylbenzoate]: the LD50 at 168 h was > 1000 mg/kg.

Consider `CC(C)OC(=O)c1ccc(Br)c(S(N)(=O)=O)c1` [Compound 9, 3-aminosulfonyl-4-bromo-isopropylbenzoate], for which the LD50 at 168 h is > 1000 mg/kg.

Take `CCCCOC(=O)c1ccc(Br)c(S(N)(=O)=O)c1` [Compound 10, 3-aminosulfonyl-4-bromo-n-butylbenzoate]: the LD50 at 168 h was > 1000 mg/kg.

On to `C=CCOC(=O)c1cc(S(N)(=O)=O)c(Cl)cc1Cl` [Compound 11, 5-aminosulfonyl-2,4-dichloro-allylbenzoate], for which the LD50 at 168 h is > 1000 mg/kg.

The same data set, now with this note: mouse, in vivo; Oral administration, suspended in 5% Arabic gum solution, mortality observed for 7 days.
`O=C(O)c1ccc(Cl)c(S(=O)(=O)N2CCOCC2)c1` [Compound 6, 4-chloro-3-morpholino-sulfonylbenzoic acid]: the LD50 at 168 h is > 3000 mg/kg.

Regarding `NS(=O)(=O)c1cc(C(=O)O)c(Cl)cc1Cl` [Compound 7, 5-aminosulfonyl-2,4-dichlorobenzoic acid], the LD50 at 168 h is > 3000 mg/kg.

Consider `COC(=O)c1ccc(F)c(S(N)(=O)=O)c1` [Compound 8, 3-aminosulfonyl-4-fluoromethylbenzoate], for which the LD50 at 168 h was > 3000 mg/kg.

In the case of `CC(C)OC(=O)c1ccc(Br)c(S(N)(=O)=O)c1` [Compound 9, 3-aminosulfonyl-4-bromo-isopropylbenzoate], the LD50 at 168 h was > 3000 mg/kg.

In the case of `CCCCOC(=O)c1ccc(Br)c(S(N)(=O)=O)c1` [Compound 10, 3-aminosulfonyl-4-bromo-n-butylbenzoate], the LD50 at 168 h is > 3000 mg/kg.

As for `C=CCOC(=O)c1cc(S(N)(=O)=O)c(Cl)cc1Cl` [Compound 11, 5-aminosulfonyl-2,4-dichloro-allylbenzoate], the LD50 at 168 h was > 3000 mg/kg.

Tested on in the next data set: not listed separately
Briefly: Physicochemical properties (qualitative solubility). The conditions noted are these: qualitative solubility in solvents.
For the compound `O=C(O)c1ccc(Cl)c(S(=O)(=O)N2CCOCC2)c1` [Compound 6, 4-chloro-3-morpholino-sulfonylbenzoic acid], the “Property (solubility)” value is “white crystalline powder; insoluble in benzene, hexane; soluble in hot water, methanol”.

Regarding `NS(=O)(=O)c1cc(C(=O)O)c(Cl)cc1Cl` [Compound 7, 5-aminosulfonyl-2,4-dichlorobenzoic acid], the “Property (solubility)” value was “white crystalline powder; insoluble in benzene, hexane; soluble in hot water, methanol”.
